The values that follow come from paper doi:10.1101/2023.04.05.535784v2 (bioRxiv, 2023).

Positions of bridges follow the written chain, without caps; N, C: chain ends. Residues, ends and D or L forms follow the SMILES beside them.

Data set [1] relates to THP-1 cells. To be noted: cited from earlier work.
In data set [2] the test system is thrombus formation in the lung. To be noted: mice, oral, three consecutive days.

Take `CC(C)C[C@@H]1NC(=O)[C@@H]2CSSC[C@@H]3NC(=O)[C@H](Cc4c[nH]c5ccccc45)NC(=O)[C@H](C)NC(=O)CNC(=O)CNC(=O)[C@H](CO)NC(=O)[C@H](CCCCN)NC(=O)[C@@H](N)CSSC[C@@H]4NC(=O)[C@H](CSSC[C@H](NC(=O)[C@H](Cc5ccccc5)NC(=O)CNC(=O)[C@H](C(C)C)NC1=O)C(=O)N[C@@H](Cc1ccc(O)cc1)C(=O)NCC(=O)N[C@@H]([C@@H](C)O)C(=O)NCC(=O)N[C@H](C(=O)O)CSSC[C@H](NC(=O)[C@H](CC(N)=O)NC(=O)CNC4=O)C(=O)NCC(=O)N2)NC(=O)CNC(=O)[C@H](Cc1c[nH]cn1)NC(=O)[C@@H]1CCCN1C(=O)[C@H](CC(=O)O)NC(=O)[C@H](Cc1ccccc1)NC(=O)CNC3=O` [ginsentide TP1] (H-CKSGGAWCGFDPHGCCGNCGCLVGFCYGTGC-OH; disulfide 1-16, 8-21, 15-26, 19-31): the “increase in IL-6, IL-8, IL-10, and TNFα” value in data set [1] was “no observable increase”. For the same molecule, the “thrombus formation in the lung compared to control, 30 mg/kg” value in data set [2] is “significantly reduced”.
